According to patent publication US11555012B2 (Nimbus Artemis, Inc., priority 2018, dated 2023):

Tests used:
[1] = target: T1, ACL (Homo sapiens (Human), UniProt P53396); test: ADP-Glo Assay
Target sequence in this assay (P53396 other isoform, or with tags, fused parts or gaps isoform P53396-2): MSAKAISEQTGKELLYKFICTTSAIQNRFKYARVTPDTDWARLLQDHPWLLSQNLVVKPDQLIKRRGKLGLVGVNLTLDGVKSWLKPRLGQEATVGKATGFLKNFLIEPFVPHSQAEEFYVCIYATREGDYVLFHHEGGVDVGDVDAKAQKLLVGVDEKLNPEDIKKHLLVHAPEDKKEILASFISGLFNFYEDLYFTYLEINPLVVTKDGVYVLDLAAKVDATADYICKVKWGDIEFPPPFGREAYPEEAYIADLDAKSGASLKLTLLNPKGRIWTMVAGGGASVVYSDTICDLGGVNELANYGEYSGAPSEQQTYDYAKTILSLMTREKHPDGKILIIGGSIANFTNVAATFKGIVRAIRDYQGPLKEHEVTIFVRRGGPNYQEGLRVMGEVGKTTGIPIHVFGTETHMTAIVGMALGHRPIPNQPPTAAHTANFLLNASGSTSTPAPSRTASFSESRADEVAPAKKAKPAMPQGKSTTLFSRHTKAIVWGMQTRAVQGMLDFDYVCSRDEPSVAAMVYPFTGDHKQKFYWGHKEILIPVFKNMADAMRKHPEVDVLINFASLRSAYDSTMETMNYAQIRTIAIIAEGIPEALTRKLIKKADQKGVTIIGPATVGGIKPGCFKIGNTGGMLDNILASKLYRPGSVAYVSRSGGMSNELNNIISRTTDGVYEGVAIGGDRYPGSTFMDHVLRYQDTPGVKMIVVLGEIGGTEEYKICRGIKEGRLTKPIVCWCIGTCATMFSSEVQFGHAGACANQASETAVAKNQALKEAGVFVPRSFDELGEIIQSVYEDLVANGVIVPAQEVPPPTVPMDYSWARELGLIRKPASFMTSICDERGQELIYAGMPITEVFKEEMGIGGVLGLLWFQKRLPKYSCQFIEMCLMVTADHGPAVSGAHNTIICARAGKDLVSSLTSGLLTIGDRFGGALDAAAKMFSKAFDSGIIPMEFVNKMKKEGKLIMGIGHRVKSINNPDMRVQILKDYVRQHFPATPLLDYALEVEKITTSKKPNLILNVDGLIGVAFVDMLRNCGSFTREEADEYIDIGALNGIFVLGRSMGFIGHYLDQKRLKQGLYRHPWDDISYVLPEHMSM
Description: Compounds of the present invention were evaluated in an ADP-GLO assay as follows:
b) Add 0.1 μL diluted cpd solution to assay plate, each dose with 2 replicates c) Centrifuge 1000 RPM for 1 min d) Add 5 μL ACL working solution to 384-well assay plate, centrifuge 1000 RPM for 1 min e) Incubate at 25° C. for 15 min f) Add 5 μL substrate working solution to initiate reaction
h) Reference final conc: 30 uM starting Conc, 3× dilution, 11+0 points. Test cpd conc: 30/100 uM starting Conc, 3× dilution, 11+0 points. i) Incubate at 25° C. for 60 min j) Add 10 μL ADP Glo reagent, centrifuge 1000 RPM for 1 min k) Incubate at 25° C. for 40 min l) Add 20 μL kinase detection reagent, centrifuge 1000 RPM for 1 min m) Incubate at 25° C. for 40 min n) Read on Envision for US LUM as RLU

[2] = target: T1, ACL; test: ACLY-MDH Coupled Assay
Target sequence in this assay (P53396 whole entry, species assumed): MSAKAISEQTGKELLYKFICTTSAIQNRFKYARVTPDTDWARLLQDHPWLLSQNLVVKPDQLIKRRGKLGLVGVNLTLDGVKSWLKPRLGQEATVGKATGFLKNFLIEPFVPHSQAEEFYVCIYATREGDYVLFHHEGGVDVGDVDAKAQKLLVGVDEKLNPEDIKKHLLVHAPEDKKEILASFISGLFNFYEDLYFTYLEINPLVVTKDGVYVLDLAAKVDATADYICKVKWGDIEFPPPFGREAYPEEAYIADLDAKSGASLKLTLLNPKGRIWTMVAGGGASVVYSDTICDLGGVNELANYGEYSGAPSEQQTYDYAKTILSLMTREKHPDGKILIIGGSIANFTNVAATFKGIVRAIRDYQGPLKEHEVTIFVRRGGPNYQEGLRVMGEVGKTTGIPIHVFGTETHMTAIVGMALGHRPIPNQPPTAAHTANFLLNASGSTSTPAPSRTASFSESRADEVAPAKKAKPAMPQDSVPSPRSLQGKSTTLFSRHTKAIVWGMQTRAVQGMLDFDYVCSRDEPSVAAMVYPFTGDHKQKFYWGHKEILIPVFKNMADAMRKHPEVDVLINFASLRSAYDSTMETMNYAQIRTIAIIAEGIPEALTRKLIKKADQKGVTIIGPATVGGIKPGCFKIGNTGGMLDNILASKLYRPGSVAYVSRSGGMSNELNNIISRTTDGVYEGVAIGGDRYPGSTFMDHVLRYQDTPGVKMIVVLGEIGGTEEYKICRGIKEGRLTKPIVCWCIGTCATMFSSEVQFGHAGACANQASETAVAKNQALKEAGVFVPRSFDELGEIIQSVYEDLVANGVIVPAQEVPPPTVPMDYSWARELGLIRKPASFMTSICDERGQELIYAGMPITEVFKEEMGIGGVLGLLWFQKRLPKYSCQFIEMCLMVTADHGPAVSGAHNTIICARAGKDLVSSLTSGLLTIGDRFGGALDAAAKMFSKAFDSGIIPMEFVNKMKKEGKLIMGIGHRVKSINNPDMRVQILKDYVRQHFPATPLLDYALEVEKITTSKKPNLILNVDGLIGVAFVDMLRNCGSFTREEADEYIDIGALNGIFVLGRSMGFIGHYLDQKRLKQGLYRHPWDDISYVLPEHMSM
Description: Compounds of the present invention were evaluated in an ACLY Coupled Assay.
The assay protocol for the Coupled Assay (below) was followed:
b) Add 1 μL cpds to 96 assay plate, Test cpd conc: 100/30/10 μM top dose, 3 folds dilution, 10+0+control (control: buffer without ACL+DMSO) points, 1000 rpm for 1 min, incubation at 25° C. for 60 min

[3] = read-out: ACL-ADP-Glo (IC50), 3 nM ACL, 15 μM ATP, 3 μM CoA, 300 μM Citrate
[4] = read-out: ACL-MDH Coupled Assay (IC50), 8 nM ACL, 60 μM CoA Na2, 85 μM Citrate, 250 μM ATP, 250 μM NADH

Row | Compound | IC50 [1] | IC50 [2] | IC50 [1, 3] | IC50 [2, 4]
1 | O=C(O)c1ncc(-c2ccccc2)cc1NS(=O)(=O)c1cc(Cl)cc(Cl)c1 [I-243, 3-((3,5-dichlorophenyl)sulfonamido)-5-phenylpicolinic Acid] | 500 to 20000 nM | 500 to 30000 nM |  | 
2 | O=C(O)c1cc(Cl)c(O)c(S(=O)(=O)Nc2cc(-c3cccs3)c(F)cc2F)c1 [I-248, 3-chloro-5-[[2,4-difluoro-5-(thiophen-2-yl)phenyl]sulfamoyl]-4-hydroxybenzoic Acid] | 500 to 20000 nM | 500 to 30000 nM |  | 
3 | O=C(O)c1ccc(-c2ccccc2)cc1NS(=O)(=O)c1cc(Cl)cc(Cl)c1O [I-249, 3-((3,5-dichloro-2-hydroxyphenyl)sulfonamido)-[1,1′-biphenyl]-4-carboxylic acid] | 500 to 20000 nM | 500 to 30000 nM |  | 
4 | O=C(O)COc1ccc(-c2ccccc2)cc1NS(=O)(=O)c1cc(C(F)(F)F)cc(Cl)c1O [I-264, 2-([3-[3-chloro-2-hydroxy-5-(trifluoromethyl)benzenesulfonamido]-[1,1-biphenyl]-4-yl]oxy)acetic Acid] | 500 to 20000 nM | 500 to 30000 nM |  | 
5 | CC(C)(C)OC(=O)COc1ccc(-c2ccccc2)cc1NS(=O)(=O)c1cc(C(=O)N2CCC2)cc(Cl)c1O [I-266, tert-butyl 2-((3-((5-(azetidine-1-carbonyl)-3-chloro-2-hydroxyphenyl)sulfonamido)-[1,1′-biphenyl]-4-yl)oxy)acetate] | 500 to 20000 nM | 500 to 30000 nM |  | 
6 | O=S(=O)(Nc1cc(-c2ccccc2)c(F)cc1F)c1cc(-c2nnn[nH]2)cc(Cl)c1O [I-269, 3-chloro-N-[4,6-difluoro-[1,1-biphenyl]-3-yl]-2-hydroxy-5-(1H-1,2,3,4-tetrazol-5-yl)benzene-1-sulfonamide] | 500 to 20000 nM | 500 to 30000 nM |  | 
7 | COc1ccc(-c2ccccc2)cc1NS(=O)(=O)c1cc(C(=O)N2CC(N)C2)cc(Cl)c1O [I-276, 5-(3-aminoazetidine-1-carbonyl)-3-chloro-2-hydroxy-N-[4-methoxy-[1,1-biphenyl]-3-yl]benzene-1-sulfonamide] |  | 50 to 500 nM | < 50 nM | 
8 | NC1CN(C(=O)c2cc(Cl)c(O)c(S(=O)(=O)Nc3cc(-c4cc5ccccc5s4)c(F)cc3F)c2)C1 [I-282, 5-(3-aminoazetidine-1-carbonyl)-N-(5-(benzo[b]thiophen-2-yl)-2,4-difluorophenyl)-3-chloro-2-hydroxybenzenesulfonamide] |  |  | < 50 nM | < 50 nM
9 | O=C(O)c1cc(F)c(-c2ccccc2)cc1NS(=O)(=O)c1cc(Cl)cc(Cl)c1O [I-289, 5-((3,5-dichloro-2-hydroxyphenyl)sulfonamido)-2-fluoro-[1,1′-biphenyl]-4-carboxylic Acid] | 500 to 20000 nM | 500 to 30000 nM |  | 
10 | O=C(O)c1ccc(-c2cc3ccccc3s2)cc1NS(=O)(=O)c1cc(Cl)cc(Cl)c1 [I-293, 4-(benzo[b]thiophen-2-yl)-2-((3,5-dichlorophenyl)sulfonamido)benzoic acid] | 500 to 20000 nM | 500 to 30000 nM |  | 
11 | O=C(O)c1ccc(-c2cc3ccccc3s2)cc1NS(=O)(=O)c1cc(Cl)cc(C(F)(F)F)c1 [I-294, 4-(benzo[b]thiophen-2-yl)-2-((3-chloro-5-(trifluoromethyl)phenyl)sulfonamido)benzoic Acid] | 500 to 20000 nM | 500 to 30000 nM |  | 
12 | COC(=O)c1cc(Br)cc(S(=O)(=O)Nc2cc(-c3ccccc3)ccc2C(=O)O)c1 [I-295, 3-((3-bromo-5-(methoxycarbonyl)phenyl)sulfonamido)-[1,1′-biphenyl]-4-carboxylic Acid] | 500 to 20000 nM | 500 to 30000 nM |  | 
13 | COc1c(Cl)cc(Cl)cc1S(=O)(=O)Nc1cc(-c2cc3ccccc3s2)ccc1C(=O)O [I-297, 4-(benzo[b]thiophen-2-yl)-2-((3,5-dichloro-2-methoxyphenyl)sulfonamido)benzoic Acid] | 500 to 20000 nM | 500 to 30000 nM |  | 
14 | O=C(O)c1ccc(-c2ccccc2)cc1NS(=O)(=O)Cc1ccc(C(F)(F)F)cc1 [I-299, 3-(((4-(trifluoromethyl)phenyl)methyl)sulfonamido)-[1,1′-biphenyl]-4-carboxylic acid] | 500 to 20000 nM | 500 to 30000 nM |  | 
15 | O=C(O)c1ccc(-c2ccccc2)cc1NS(=O)(=O)Cc1cc(Cl)cc(Cl)c1 [I-305, 3-(((3,5-dichlorophenyl)methyl)sulfonamido)-[1,1′-biphenyl]-4-carboxylic acid] | 500 to 20000 nM | 500 to 30000 nM |  | 
16 | O=C(O)c1ccc(-c2ccccc2)cc1NS(=O)(=O)c1cc(Br)cc(C(F)(F)F)c1 [I-306, 3-((3-bromo-5-(trifluoromethyl)phenyl)sulfonamido)-[1,1′-biphenyl]-4-carboxylic acid] | 50 to 500 nM | 50 to 500 nM |  | 
17 | O=C(O)c1ccc(-c2ccccc2)cc1NS(=O)(=O)c1cc(Cl)c(Cl)s1 [I-311, 3-((4,5-dichlorothiophene)-2-sulfonamido)-[1,1′-biphenyl]-4-carboxylic acid] | 500 to 20000 nM | 500 to 30000 nM |  | 
18 | O=C(O)c1occc1NS(=O)(=O)c1cc(Cl)cc(Cl)c1 [I-316, 3-((3,5-dichlorophenyl)sulfonamido)furan-2-carboxylic acid] | 500 to 20000 nM | 500 to 30000 nM |  | 
19 | O=C(O)c1cc(F)c(-c2ccccc2)cc1NCc1cc(Cl)cc(Cl)c1 [I-317, 5-((3,5-dichlorobenzyl)amino)-2-fluoro-[1,1′-biphenyl]-4-carboxylic Acid] | 500 to 20000 nM | 500 to 30000 nM |  | 
20 | O=C(O)c1sc(-c2ccc(Cl)cc2)cc1NS(=O)(=O)c1cc(Cl)cc(Cl)c1 [I-322, 5-(4-chlorophenyl)-3-((3,5-dichlorophenyl)sulfonamido)thiophene-2-carboxylic acid] | 500 to 20000 nM | 500 to 30000 nM |  | 
21 | O=c1[nH]cc(Cl)cc1S(=O)(=O)Nc1cc(-c2ccccc2)c(F)cc1F [I-326, 5-chloro-N-(4,6-difluoro-[1,1′-biphenyl]-3-yl)-2-oxo-1,2-dihydropyridine-3-sulfonamide] |  |  | 50 to 500 nM | 50 to 500 nM

Row | Compound | IC50 [1] | IC50 [2] | IC50 [1, 3] | IC50 [2, 4]
22 | CC(C)(C)C1CCN(S(=O)(=O)Nc2cc(-c3ccccc3)ccc2C(=O)O)CC1 [I-327] | 500 to 20000 nM | 500 to 30000 nM |  | 
23 | O=C(O)c1ccc(-c2ccccc2)cc1NS(=O)(=O)CC1Cc2ccccc2C1 [I-328] | 500 to 20000 nM | 500 to 30000 nM |  | 
24 | O=C(O)c1ccc(-c2ccccc2)cc1NS(=O)(=O)C1CCC1 [I-329] | 500 to 20000 nM | 500 to 30000 nM |  | 
25 | O=C(O)c1ccc(-c2ccccc2)cc1NS(=O)(=O)c1ccnn1CCc1ccccc1 [I-330] | 500 to 20000 nM | 500 to 30000 nM |  | 
26 | O=C(O)c1ccc(-c2ccccc2)cc1NS(=O)(=O)c1cc(Cl)sc1Cl [I-331] | 500 to 20000 nM | 500 to 30000 nM |  | 
27 | O=C(O)c1ccc(-c2ccccc2)cc1NS(=O)(=O)c1c(Cl)nc2sccn12 [I-332] | 500 to 20000 nM | 500 to 30000 nM |  | 
28 | Cc1sc2ccccc2c1S(=O)(=O)Nc1cc(-c2ccccc2)ccc1C(=O)O [I-333] | 500 to 20000 nM | 500 to 30000 nM |  | 
29 | O=C(O)c1ccc(-c2ccccc2)cc1NS(=O)(=O)c1c(Cl)nc2ccc(Br)cn12 [I-334] | 500 to 20000 nM | 500 to 30000 nM |  | 
30 | Cc1c(S(=O)(=O)Nc2cc(-c3ccccc3)ccc2C(=O)O)c2ccccc2n1C [I-335] | 500 to 20000 nM | 500 to 30000 nM |  | 
31 | O=C(O)c1ccc(-c2ccccc2)cc1NS(=O)(=O)c1ccccc1-c1ccno1 [I-336] | 500 to 20000 nM | 500 to 30000 nM |  | 
32 | CC(=O)N1CCc2cc(Br)c(S(=O)(=O)Nc3cc(-c4ccccc4)ccc3C(=O)O)cc21 [I-338] | 500 to 20000 nM | 500 to 30000 nM |  | 
33 | O=C(O)c1ccc(-c2ccccc2)cc1NS(=O)(=O)c1cccc2nonc12 [I-339] | 500 to 20000 nM | 500 to 30000 nM |  | 
34 | O=C(O)c1ccc(-c2ccccc2)cc1NS(=O)(=O)N1CCC2(CCCCC2)CC1 [I-340] | 500 to 20000 nM | 500 to 30000 nM |  | 
35 | CN(C(=O)c1cc(Cl)cc(Cl)c1)c1cc(-c2ccccc2)ccc1C(=O)O [I-347, 3-(3,5-dichloro-N-methylbenzamido)-[1,1′-biphenyl]-4-carboxylic Acid] | 500 to 20000 nM | 500 to 30000 nM |  | 
36 | O=C(O)c1ccc(-c2ccccc2)cc1NS(=O)(=O)c1cc(Cl)c[nH]c1=O [I-350, 3-((5-chloro-2-oxo-1,2-dihydropyridine)-3-sulfonamido)-[1,1′-biphenyl]-4-carboxylic acid] | 500 to 20000 nM | 500 to 30000 nM |  | 
37 | O=c1[nH]cc(C(F)(F)F)cc1S(=O)(=O)Nc1cc(-c2ccccc2)ccc1F [I-355, N-[4-fluoro-[1,1-biphenyl]-3-yl]-2-oxo-5-(trifluoromethyl)-1,2-dihydropyridine-3-sulfonamide] | 50 to 500 nM | 500 to 30000 nM |  | 
38 | O=C(O)c1ccc(-c2cccs2)cc1NS(=O)(=O)c1cc(Cl)cc(C(F)(F)F)c1 [I-366, 2-((3-chloro-5-(trifluoromethyl)phenyl)sulfonamido)-4-(thiophen-2-yl)benzoic Acid] | 50 to 500 nM | 50 to 500 nM |  | 
39 | O=c1[nH]cc(Cl)cc1S(=O)(=O)Nc1cc(-c2cc3ccccc3s2)ccc1F [I-367, N-(5-(benzo[b]thiophen-2-yl)-2-fluorophenyl)-5-chloro-2-oxo-1,2-dihydropyridine-3-sulfonamide] | 500 to 20000 nM | 500 to 30000 nM |  | 
40 | O=S(=O)(Nc1ccoc1)c1cc(Cl)cc(Cl)c1 [I-368, 3,5-dichloro-N-(furan-3-yl)benzenesulfonamide] | 50 to 500 nM | > 30000 nM |  | 
41 | COc1ccc(-c2ccccc2)cc1NS(=O)(=O)c1ccc(-c2nn[nH]n2)cc1 [I-407, N-(2-methoxy-5-phenylphenyl)-4-(2H-1,2,3,4-tetrazol-5-yl)benzene-1-sulfonamide] | > 20000 nM | > 30000 nM |  | 
42 | COc1ccc(-c2cc3ccccc3s2)cc1NS(=O)(=O)c1cc(C(=O)N2CCC2)cc(Cl)c1O [I-503, 5-(azetidine-1-carbonyl)-N-(5-(benzo[b]thiophen-2-yl)-2-methoxyphenyl)-3-chloro-2-hydroxybenzenesulfonamide] |  |  | < 50 nM | < 50 nM
